# Measurements reported in the NIST ThermoML archive (doi:10.1016/j.fluid.2013.08.029).
# Numbers after ± are expanded uncertainties.
# Details: 101.33 kPa, Liquid; for speed of sound: Sing-around technique in a fixed-path interferometer; for mass density: Vibrating tube method
speed of sound (288.15 K),speed of sound (293.15 K),mass density (293.15 K),speed of sound (298.15 K),speed of sound (303.15 K),mass density (303.15 K),speed of sound (308.15 K),speed of sound (313.15 K),mass density (313.15 K),speed of sound (318.15 K),mass density (288.15 K),mass density (298.15 K),mass density (308.15 K),mass density (318.15 K),SMILES
1677.5 ± 2.2 m/s,1665.6 ± 2.2 m/s,1113.35 ± 0.16 kg/m3,1653.9 ± 2.2 m/s,1642.2 ± 2.2 m/s,1106.33 ± 0.16 kg/m3,1630.6 ± 2.2 m/s,1618.9 ± 2.2 m/s,1099.26 ± 0.16 kg/m3,1607.3 ± 2.2 m/s,–,–,–,–,"OCCO [1,2-ethanediol]"
1668.6 ± 2.2 m/s,1654.9 ± 2.1 m/s,1196.72 ± 0.15 kg/m3,1641.4 ± 2.1 m/s,1628.7 ± 2.1 m/s,1189.92 ± 0.15 kg/m3,1616.9 ± 2.1 m/s,1605.1 ± 2.1 m/s,1183.17 ± 0.15 kg/m3,1593.9 ± 2.1 m/s,1199.9 ± 0.15 kg/m3,1193.34 ± 0.15 kg/m3,1186.52 ± 0.15 kg/m3,1179.54 ± 0.15 kg/m3,"CCCCn1cc[n+](C)c1C.F[B-](F)(F)F [1-butyl-2,3-dimethylimidazolium tetrafluoroborate]"
1565.2 ± 2.9 m/s,1552.5 ± 2.9 m/s,1180.34 ± 1.2 kg/m3,1540.2 ± 2.9 m/s,1528.2 ± 2.9 m/s,1173.35 ± 1.2 kg/m3,1516.3 ± 2.9 m/s,1504.6 ± 2.9 m/s,1166.36 ± 1.2 kg/m3,1493.1 ± 2.9 m/s,1183.92 ± 1.2 kg/m3,1176.85 ± 1.2 kg/m3,1169.85 ± 1.2 kg/m3,1162.85 ± 1.2 kg/m3,CCCCCn1cc[n+](C)c1.F[B-](F)(F)F [1-methyl-3-pentyl-imidazolium tetrafluoroborate]
1678.6 ± 3 m/s,1644.2 ± 3 m/s,1260.52 ± 1.4 kg/m3,1617.5 ± 3 m/s,1596.4 ± 2.9 m/s,1253.05 ± 1.4 kg/m3,1578.9 ± 2.9 m/s,1563.7 ± 2.9 m/s,1246.17 ± 1.4 kg/m3,1550.2 ± 2.9 m/s,1264.08 ± 1.4 kg/m3,1256.87 ± 1.4 kg/m3,1249.57 ± 1.4 kg/m3,1242.76 ± 1.4 kg/m3,CCCCCn1cc[n+](C)c1.[Br-] [1-pentyl-3-methylimidazolium bromide]
